Test results taken from the NIST ThermoML archive (doi:10.1016/j.jct.2014.02.019).

What was measured:
[1] = 101 kPa, Liquid; for viscosity: Capillary tube (Ostwald / Ubbelohde) method; for mass density: Vibrating tube method
[2] = wn = mass fraction of the nth substance listed; conditions: 101 kPa, Liquid; for viscosity: Capillary tube (Ostwald / Ubbelohde) method; for mass density: Vibrating tube method

CC#N [acetonitrile]
[1]
Conditions | mass density [kg/m3] | viscosity [mPa·s]
298.15 K | 776.47 | 0.342
303.15 K | 771.56 | 0.3269
308.15 K | 765.26 | 0.3092
313.15 K | 759.55 | 0.2929

CC#N [acetonitrile] + CN(C)C=O
[2]
Conditions | mass density, 298.15 K [kg/m3] | mass density, 303.15 K [kg/m3] | mass density, 308.15 K [kg/m3] | mass density, 313.15 K [kg/m3] | viscosity, 298.15 K [mPa·s] | viscosity, 303.15 K [mPa·s] | viscosity, 308.15 K [mPa·s] | viscosity, 313.15 K [mPa·s]
w2 = 0 | 776.47 | 771.56 | 765.26 | 759.55 | 0.342 | 0.3269 | 0.3092 | 0.2929
w2 = 0.25 | 816.75 | 811.82 | 806.58 | 801.83 | 0.3959 | 0.3598 | 0.3417 | 0.3262
w2 = 0.5 | 856.92 | 852.67 | 847.38 | 842.57 | 0.5214 | 0.46 | 0.434 | 0.4038
w2 = 0.75 | 900.14 | 895.46 | 890.88 | 886.23 | 0.6465 | 0.6145 | 0.5816 | 0.5524

CN(C)C=O [dimethylformamide]
[1]
Conditions | mass density [kg/m3] | viscosity [mPa·s]
298.15 K | 944.65 | 0.7986
303.15 K | 940.05 | 0.755
308.15 K | 935.71 | 0.7069
313.15 K | 929.91 | 0.6716

CN(C)C=O [dimethylformamide] + CC#N
[2], w1 = 1
Conditions | mass density [kg/m3] | viscosity [mPa·s]
298.15 K | 944.65 | 0.7986
303.15 K | 940.05 | 0.755
308.15 K | 935.71 | 0.7069
313.15 K | 929.91 | 0.6716
